Results reported in paper PMC7503713, “GANT61 Reduces Hedgehog Molecule (GLI1) Expression and Promotes Apoptosis in Metastatic Oral Squamous Cell Carcinoma Cells” (International Journal of Molecular Sciences, 2020).

Legend:
Type in all cases: cell-based, human
SCC9 = assay: alamarBlue cytotoxicity assay, SCC9
Procedure: To assess the cytotoxicity of the GLI inhibitor GANT61 (Sigma-Aldrich, St. Louis, MO, USA) in tumor and non-tumor cell lines, an alamarBlue assay (Sigma-Aldrich Chemical Co, St. Louis, MO, USA) was performed after 72 h of exposure to the inhibitor, as described by Ahmed et al., 1994 [46]. Cells were distributed on 96-well plates at a density of 7 × 10^4 cells/mL for adhered cells, and 3 × 10^5 cells/mL for cells in suspension. All tested compounds were dissolved in DMSO, added to wells containing 100 µL of cells in complete medium, and then incubated for 72 h. Eight concentrations of GANT61 (0.19 to 50 µg/mL), Doxorubicin (Laboratory IMA S.A.I.C., Buenos Aires, Argentina), and 5-Fluorouracil (5-FU, Sigma-Aldrich, St. Louis, MO, USA), both used as positive controls at concentrations ranging from 0.03 to 5 µg/mL, were added to respective wells. Cells treated with the vehicle (0.5% DMSO) used to dilute the tested compounds were used as negative controls. Before the end of the incubation period (4 h for cell lines and 24 h for PBMCs), 20 µL of alamarBlue stock solution (resazurin, Sigma-Aldrich, St. Louis, MO, USA) was added to each well. Absorbance was measured at 570 nm (reduced) and 595 nm (oxidized) wavelengths, using a Spectramax 190 plate reader (Molecular Devices; Sunnyvale, CA, USA).
Statistical analyses were performed, using GraphPad Prism v. 6.03 (GraphPad Software, Inc., San Diego, USA). Data were analyzed according to distribution along the normal Gaussian curve. IC50 values were obtained through non-linear regression, using results from three independent experiments carried out in duplicate. Differences between groups resulting from in vitro assays were evaluated by ANOVA (analysis of variance) testing, followed by the Student–Newman–Keuls test. This study considered a level of significance, corresponding to alpha (α) or “p” value, when results were less than or equal to 5%.

Gli1 protein = assay: Western blot of HH pathway proteins in HSC3 cells, Gli1; conditions: 24 h
Procedure: After culturing, HSC3 cells were washed with PBS and denatured by using cell lysis buffer containing 50 mM Tris-HCl (pH 7.4), 1% Triton X-100, 150 mM NaCl, 0.5 mM EGTA, 0.5 EDTA mM, and an anti-protease cocktail (Complete Pro-inhibitor Cocktail Tablets, Roche, Basel, Switzerland). Protein extracts (50 μg) were separated by SDS-PAGE and transferred to Hybond-C Extra (GE Healthcare, Chicago, IL, USA) nitrocellulose membranes. The following antibodies were used in the Western blot assay: mouse […] against Sonic Hedgehog (1:500, Clone 5 H4, Cat. number NBP2-22126, Novus Biologicals, Centennial, CO, USA), rabbit polyclonal against Gli1 (1:500, Novus Biologicals, Cat. number NB600-600), rabbit polyclonal against Patched 1 (1:500, Novus Biologicals, Cat.number NB200-118), and rabbit polyclonal against Smoothened (1:1000, Cat. number AB72130, Abcam, Cambridge, MA, USA). The secondary antibodies were anti-mouse IgG (1:10,000, Santa Cruz Biotechnology, Santa Cruz, CA, USA) and anti-rabbit IgG (1:10,000, GE Healthcare, Chicago, IL, USA). Signal detection was performed by using an ECL + Chemiluminescence Detection System (PerkinElmer, Villebon sur-Yvette, France). The antibody actin (1:10000, Cat. Number15 G5 A11/E2, Invitrogen, Carlsbad, CA, USA) was selected as an endogenous control for analysis of HH pathway component expression in HSC3 cells. […]

HSC3 cells = assay: Cell cycle and internucleosomal DNA fragmentation by flow cytometry (PI); conditions: for cells in S and G2/M phases: ≥48 h
Procedure: To study the effects of GANT61 on HSC3 cell viability, cycle, and death patterns, 4 mL of cellular solution (containing 0.7 × 10^5 cells/mL) was placed on 6-well plates and incubated overnight, to allow adhesion. […] For cell cycle analysis, the effects of GANT61 on HSC3 cells were also evaluated after 12 h of treatment. Negative controls were treated with the vehicle (0.2% DMSO) used to dilute the GLI inhibitor, and 5-fluorouracil (5-FU, 17 μM) was used as a positive control. All experiments were carried out in duplicate and repeated no less than three times. Cell viability was determined by the trypan blue exclusion method, in which 90 μL aliquots were collected at several incubation periods, stained with 10 μL trypan blue, and counted in a Neubauer chamber, under optical microscopy, at 20× magnification (Olympus CX41 Olympus, Tokyo, Japan).
Cellular nuclear DNA content was evaluated by flow cytometry, to differentiate among cell cycle phases, using PI (propidium iodide) as a fluorogenic agent. Following incubation with the GLI inhibitor, the supernatant was collected, and wells were washed with saline. Next, cells were trypsinized, then centrifuged (295× g for 5 min) together with the supernatant. Permeabilization was carried out by using a solution (300 µL) containing 0.1% triton X-100, 0.1% sodium citrate and 2 μg/mL of PI and 100 µg/mL RNase in distilled water, placed under dark conditions, at room temperature, for 30 min. Cells were then acquired (10,000 events/sample) and analyzed on a BD LSRFortessa flow cytometer, using BD FACSDiva software version 6.2 (Becton Dickinson Biosciences, San José, CA, USA). Proportions of fragmented internucleosomal DNA and cell cycle phases were determined by using Flowjo software v. 10 (Flowjo LCC, Ashland, OR, USA). Cells in sub-G1 phase were considered to present internucleosomal DNA fragmentation. Cellular debris was omitted from our analysis.

| Structure (SMILES) | IC50 (SCC9; Homo sapiens, SCC-9, 72 h of incubation) | Gli1 protein levels (Gli1 protein; HSC3, 17 µM) | cells in S and G2/M phases (HSC3 cells; 5-FU positive control) | IC50 (SCC9; 72 h of incubation) | Gli1 protein expression (Gli1 protein; HSC3, 18 and 36 µM) | cells in the sub-G0/G1 phase (HSC3 cells; 36 µM, 24 and 48 h, vs DMSO 0.2%) | percentage of HSC3 cells in the sub-G0/G1 phase (HSC3 cells; 36 µM, 12 h) | number of cells in the G0-G1 phase (HSC3 cells; 36 µM, from 12 h forward) | cells in S and G2/M phases (HSC3 cells; 18 and 36 µM) |
| --- | --- | --- | --- | --- | --- | --- | --- | --- | --- |
| O=c1[nH]cc(F)c(=O)[nH]1 [5-FU, 5-fluorouracil] | 143 µM | reduce Gli1 protein levels | significantly lower numbers of cells |  |  |  |  |  |  |
| CN(C)c1ccccc1CN1CCCN(Cc2ccccc2N(C)C)C1c1ccncc1 [GANT61] |  |  |  | 83.5 µM | reduced levels | significantly higher numbers of cells | significant increase | significant decrease | significantly lower numbers of cells |
